Common to all, as to test: relative viability (nuclei count vs DMSO), 5 days (fraction); higher = more cells survive
Compound in the test “Crizotinib + Palbociclib”: C[C@@H](Oc1cc(-c2cnn(C3CCNCC3)c2)cnc1N)c1c(Cl)ccc(F)c1Cl [Crizotinib] + CC(=O)c1c(C)c2cnc(Nc3ccc(N4CCNCC4)cn3)nc2n(C2CCCC2)c1=O [Palbociclib] (partner 0.5 µM)
Summed up: (§1)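 Values are medians from duplicate plates. Each reflects relative viability, defined as the nuclei count of treated wells over that of vehicle wells. Lung cancer cell lines in 1536-well plates were pin-tool dosed one day after seeding with one drug alone or with a fixed anchor-drug dose plus five library-drug doses (not always all listed) in √10 steps, then fixed, stained and imaged at 4× after 5 days.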

Compound in the test “Olaparib + Alpelisib”: O=C(c1cc(Cc2n[nH]c(=O)c3ccccc23)ccc1F)N1CCN(C(=O)C2CC2)CC1 [Olaparib] + Cc1nc(NC(=O)N2CCC[C@H]2C(N)=O)sc1-c1ccnc(C(C)(C)C(F)(F)F)c1 [Alpelisib] (partner 2 µM)
In a few lines:
as §1

Compound in the test “Carfilzomib + Alpelisib”: CC(C)C[C@H](NC(=O)[C@H](CCc1ccccc1)NC(=O)CN1CCOCC1)C(=O)N[C@@H](Cc1ccccc1)C(=O)N[C@@H](CC(C)C)C(=O)[C@@]1(C)CO1 [Carfilzomib] + Cc1nc(NC(=O)N2CCC[C@H]2C(N)=O)sc1-c1ccnc(C(C)(C)C(F)(F)F)c1 [Alpelisib] (partner 2 µM)
In a few lines: as §1

Compound in the test “Carfilzomib + Phenformin”: CC(C)C[C@H](NC(=O)[C@H](CCc1ccccc1)NC(=O)CN1CCOCC1)C(=O)N[C@@H](Cc1ccccc1)C(=O)N[C@@H](CC(C)C)C(=O)[C@@]1(C)CO1 [Carfilzomib] + N=C(N)NC(=N)NCCc1ccccc1 [Phenformin] (partner 250 µM)
In a few lines:
as §1

Take NCI-H838: the relative viability with Crizotinib + Palbociclib (first compound 0.01 µM) turned out to be 0.178; in the test with Crizotinib + Palbociclib (first compound 0.03162 µM), 0.248; with Crizotinib + Palbociclib (first compound 0.1 µM), 0.225; in the test with Crizotinib + Palbociclib (first compound 0.3162 µM), 0.239; in the test with Crizotinib + Palbociclib (first compound 1 µM), 0.236; with Olaparib + Alpelisib (first compound 0.08 µM) it was 1.09. For the same cell line, the relative viability with Olaparib + Alpelisib (first compound 0.253 µM) is 0.933; with Olaparib + Alpelisib (first compound 2.53 µM), 0.978; with Olaparib + Alpelisib (first compound 8 µM) it was 0.944; with Carfilzomib + Alpelisib (first compound 0.001 µM), 0.979; with Carfilzomib + Alpelisib (first compound 0.003162 µM), 1.09; with Carfilzomib + Alpelisib (first compound 0.01 µM), 1.06. For the same cell line, the relative viability with Carfilzomib + Alpelisib (first compound 0.03162 µM) worked out at 0.992; with Carfilzomib + Alpelisib (first compound 0.1 µM), 0.122; with Carfilzomib + Phenformin (first compound 0.001 µM), 0.66; with Carfilzomib + Phenformin (first compound 0.003162 µM), 0.865; with Carfilzomib + Phenformin (first compound 0.01 µM), 0.537; with Carfilzomib + Phenformin (first compound 0.03162 µM), 0.122. Besides, the relative viability with Carfilzomib + Phenformin (first compound 0.1 µM) turned out to be 0.13.

As for Calu-6, the relative viability with Olaparib + Alpelisib (first compound 0.08 µM) stood at 1.08; in the test with Olaparib + Alpelisib (first compound 0.253 µM), 1.04; with Olaparib + Alpelisib (first compound 2.53 µM), 0.965; in the test with Olaparib + Alpelisib (first compound 8 µM), 0.729; in the test with Carfilzomib + Alpelisib (first compound 0.001 µM), 0.93; with Carfilzomib + Alpelisib (first compound 0.003162 µM), 1.02. In addition, the results for the relative viability in the test with Carfilzomib + Alpelisib (first compound 0.01 µM), with Carfilzomib + Alpelisib (first compound 0.03162 µM) and in the test with Carfilzomib + Alpelisib (first compound 0.1 µM) were 0.838, 0.174 and 0.102, respectively.

For the cell line BEN, the relative viability stood at 0.528 with Crizotinib + Palbociclib (first compound 0.01 µM); 0.504 with Crizotinib + Palbociclib (first compound 0.03162 µM); 0.464 with Crizotinib + Palbociclib (first compound 0.1 µM); 0.47 with Crizotinib + Palbociclib (first compound 0.3162 µM); 0.489 with Crizotinib + Palbociclib (first compound 1 µM); 1.02 with Olaparib + Alpelisib (first compound 0.08 µM). The relative viability was 1.02 in the test with Olaparib + Alpelisib (first compound 0.253 µM); 1.19 with Olaparib + Alpelisib (first compound 2.53 µM); 0.995 with Olaparib + Alpelisib (first compound 8 µM); 1.04 in the test with Carfilzomib + Alpelisib (first compound 0.001 µM); 1.22 in the test with Carfilzomib + Alpelisib (first compound 0.003162 µM); 1.12 with Carfilzomib + Alpelisib (first compound 0.01 µM). Moreover, the relative viability with Carfilzomib + Alpelisib (first compound 0.03162 µM) was found to be 0.83; with Carfilzomib + Alpelisib (first compound 0.1 µM) it was 0.499; in the test with Carfilzomib + Phenformin (first compound 0.001 µM), 0.319; with Carfilzomib + Phenformin (first compound 0.003162 µM), 0.318; with Carfilzomib + Phenformin (first compound 0.01 µM), 0.346; with Carfilzomib + Phenformin (first compound 0.03162 µM), 0.251. Besides, the relative viability with Carfilzomib + Phenformin (first compound 0.1 µM) amounted to 0.182.

As for NCI-H1651, the relative viability with Crizotinib + Palbociclib (first compound 0.01 µM) worked out at 0.507; in the test with Crizotinib + Palbociclib (first compound 0.03162 µM), 0.544; in the test with Crizotinib + Palbociclib (first compound 0.1 µM), 0.505; with Crizotinib + Palbociclib (first compound 0.3162 µM) it was 0.534; with Crizotinib + Palbociclib (first compound 1 µM), 0.529; with Olaparib + Alpelisib (first compound 0.08 µM) it was 0.927. For the same cell line, the relative viability with Olaparib + Alpelisib (first compound 0.253 µM) turned out to be 0.869; with Olaparib + Alpelisib (first compound 2.53 µM) it was 0.714; with Olaparib + Alpelisib (first compound 8 µM), 0.356; in the test with Carfilzomib + Alpelisib (first compound 0.001 µM) it was 0.927; in the test with Carfilzomib + Alpelisib (first compound 0.003162 µM) it was 0.881; with Carfilzomib + Alpelisib (first compound 0.01 µM) it was 0.725. In addition, the relative viability in the test with Carfilzomib + Alpelisib (first compound 0.03162 µM) amounted to 0.0951; with Carfilzomib + Alpelisib (first compound 0.1 µM) it was 0.0668; in the test with Carfilzomib + Phenformin (first compound 0.001 µM), 0.33; in the test with Carfilzomib + Phenformin (first compound 0.003162 µM), 0.342; in the test with Carfilzomib + Phenformin (first compound 0.01 µM), 0.173; with Carfilzomib + Phenformin (first compound 0.03162 µM), 0.133. The relative viability in the test with Carfilzomib + Phenformin (first compound 0.1 µM) was determined as 0.0929.

On to NCI-H2087, for which the relative viability with Crizotinib + Palbociclib (first compound 0.01 µM) was 0.178; with Crizotinib + Palbociclib (first compound 0.03162 µM), 0.244; with Crizotinib + Palbociclib (first compound 0.1 µM), 0.213; in the test with Crizotinib + Palbociclib (first compound 0.3162 µM), 0.229; in the test with Crizotinib + Palbociclib (first compound 1 µM) it was 0.23; with Olaparib + Alpelisib (first compound 0.08 µM), 1.21. In addition, the relative viability in the test with Olaparib + Alpelisib (first compound 0.253 µM) is 0.95; with Olaparib + Alpelisib (first compound 2.53 µM) it was 1.02; with Olaparib + Alpelisib (first compound 8 µM), 0.706; in the test with Carfilzomib + Alpelisib (first compound 0.001 µM) it was 1.13; in the test with Carfilzomib + Alpelisib (first compound 0.003162 µM), 1.25; with Carfilzomib + Alpelisib (first compound 0.01 µM) it was 0.83. The relative viability in the test with Carfilzomib + Alpelisib (first compound 0.03162 µM) came out at 0.0689; with Carfilzomib + Alpelisib (first compound 0.1 µM), 0.0648; with Carfilzomib + Phenformin (first compound 0.001 µM), 0.471; with Carfilzomib + Phenformin (first compound 0.003162 µM), 0.445; with Carfilzomib + Phenformin (first compound 0.01 µM) it was 0.13; with Carfilzomib + Phenformin (first compound 0.03162 µM), 0.0358. For the same cell line, in the test with Carfilzomib + Phenformin (first compound 0.1 µM), the relative viability is 0.0687.

The record behind these values is the supplement of paper PMC10307832.
